Tested on: rat calvarial defect
Experiment: Rat calvarial defect model, drug in calcium phosphate cement suspended in demineralized bone matrix putty
Assay type: in vivo, female Sprague Dawley rats
Details: 2.6 mm defect; 3 mg/ml in cement-DBM putty 1:8; eight weeks; FIG. 2
Description: The rat calvarial defect model is a widely used model through which the ability of a treatment agent to induce bone formation is assessed (Aghaloo et al., The effect of NELL1 and bone morphogenetic protein-2 on calvarial bone regeneration, J. Oral Maxillofac. Surg. 2010: 68:300-308; Mark et al., Repair of calvarial nonunions by osteogenin, a bone-inductive protein, Plast. Reconstr. Surg. 1990: 86:623-30).
Bone defects are created by removal of bone from the cranium of female Sprague Dawley rats by a bone trephine (cranial defect). Cranial defects are 2.6 mm in diameter and the cranium approximately 1 mm thick. A matrix of approximately 2 mm thickness is applied to the defect. Thus the dosing volume for each defect is calculated as π*r^2*matrix thickness=3.14*1.3^2*2=10.61 μl and rounded to 11 μl for purposes of dose calculation.
EXAMPLE 2C is tested at seven doses with five rats in each group. These are 3, 10, 30, 100 and 300 μg/ml and 1 and 3 mg/ml. A negative control group treated with dosing matrix containing no drug (Vehicle) as well as a positive control group treated with 50 μg/ml recombinant human bone morphogenetic protein 2 (BMP-2) are also included in the study. […]
The area measured each week is compared to that of the first week and the degree of repair calculated by the following formula: (original area−current area)/original area*100 […]

CCC#CC[C@H](C)[C@H](O)/C=C/[C@H]1CCC(=O)N1CCCCCCC(=O)O [2E′, 7-((R)-2-((3S,4S,E)-3-hydroxy-4-methylnon-1-en-6-yn-1-yl)-5-oxopyrrolidin-1-yl)heptanoic acid]
Healing of a calvarial bone defect: Accelerated Healing

Reference: US10729810B2, “Methods, systems, and compositions for promoting bone growth” (Cayman Chemical Company, Inc., priority 2013, dated 2020)
